Assay results: ChEMBL document CHEMBL1201862, “PubChem BioAssay data set” (2004)
Active and inactive are the calls of the source.

Columns and labels:
[1] = target: Serine/threonine-protein kinase Chk2 (Homo sapiens, UniProt O96017); assay type: functional;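 note: CHEK2 entry within a kinome-wide screening panel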
Aurora kinase A = Aurora kinase A (Homo sapiens, UniProt O14965); assay type: functional;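 note: value from the Navigating the Kinome kinase panel profiling, panel entry STK6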
[2] = target: Casein kinase II subunit alpha (Homo sapiens, UniProt P68400); assay type: functional
Sequence of Casein kinase II subunit alpha (P68400 whole entry): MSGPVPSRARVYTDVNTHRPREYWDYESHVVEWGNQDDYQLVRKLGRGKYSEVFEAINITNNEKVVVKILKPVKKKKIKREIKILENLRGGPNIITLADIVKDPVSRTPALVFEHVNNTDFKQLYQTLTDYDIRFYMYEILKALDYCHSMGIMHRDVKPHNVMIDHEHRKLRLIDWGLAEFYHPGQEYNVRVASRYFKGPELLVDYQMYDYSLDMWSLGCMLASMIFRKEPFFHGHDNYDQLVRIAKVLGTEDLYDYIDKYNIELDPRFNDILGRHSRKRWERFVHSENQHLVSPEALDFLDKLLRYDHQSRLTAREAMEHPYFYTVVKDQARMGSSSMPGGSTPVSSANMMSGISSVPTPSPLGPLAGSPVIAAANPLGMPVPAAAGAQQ

[3] = target: Fibroblast growth factor receptor 1 (Homo sapiens, UniProt P11362); assay type: functional
Sequence of Fibroblast growth factor receptor 1 (P11362 whole entry): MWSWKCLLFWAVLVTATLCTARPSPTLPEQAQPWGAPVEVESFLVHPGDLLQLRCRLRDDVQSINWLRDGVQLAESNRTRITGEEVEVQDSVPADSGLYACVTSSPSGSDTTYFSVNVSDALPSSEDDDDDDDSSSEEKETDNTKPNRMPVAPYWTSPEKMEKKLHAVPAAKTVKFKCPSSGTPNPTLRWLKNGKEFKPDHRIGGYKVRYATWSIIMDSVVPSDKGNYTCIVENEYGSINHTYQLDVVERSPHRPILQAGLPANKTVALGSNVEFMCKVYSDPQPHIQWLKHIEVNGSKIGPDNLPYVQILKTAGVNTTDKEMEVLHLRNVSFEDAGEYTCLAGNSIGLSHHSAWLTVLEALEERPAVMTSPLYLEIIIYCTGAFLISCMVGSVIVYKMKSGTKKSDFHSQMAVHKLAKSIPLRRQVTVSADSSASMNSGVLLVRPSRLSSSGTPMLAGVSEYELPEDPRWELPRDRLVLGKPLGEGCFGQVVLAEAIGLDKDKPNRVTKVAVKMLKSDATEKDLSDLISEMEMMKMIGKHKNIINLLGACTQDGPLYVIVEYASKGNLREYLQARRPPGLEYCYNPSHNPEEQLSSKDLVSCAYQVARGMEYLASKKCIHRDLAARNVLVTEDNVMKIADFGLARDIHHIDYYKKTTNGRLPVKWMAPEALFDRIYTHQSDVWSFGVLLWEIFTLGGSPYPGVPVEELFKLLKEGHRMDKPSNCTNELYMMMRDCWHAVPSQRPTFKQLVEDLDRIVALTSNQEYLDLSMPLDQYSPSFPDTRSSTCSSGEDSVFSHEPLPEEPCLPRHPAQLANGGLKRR

[4] = target: MAP/microtubule affinity-regulating kinase 3 (Homo sapiens, UniProt P27448); assay type: functional;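 note: MARK3 affinity measured as one member of a kinome panel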
Sequence of MAP/microtubule affinity-regulating kinase 3 (P27448 whole entry): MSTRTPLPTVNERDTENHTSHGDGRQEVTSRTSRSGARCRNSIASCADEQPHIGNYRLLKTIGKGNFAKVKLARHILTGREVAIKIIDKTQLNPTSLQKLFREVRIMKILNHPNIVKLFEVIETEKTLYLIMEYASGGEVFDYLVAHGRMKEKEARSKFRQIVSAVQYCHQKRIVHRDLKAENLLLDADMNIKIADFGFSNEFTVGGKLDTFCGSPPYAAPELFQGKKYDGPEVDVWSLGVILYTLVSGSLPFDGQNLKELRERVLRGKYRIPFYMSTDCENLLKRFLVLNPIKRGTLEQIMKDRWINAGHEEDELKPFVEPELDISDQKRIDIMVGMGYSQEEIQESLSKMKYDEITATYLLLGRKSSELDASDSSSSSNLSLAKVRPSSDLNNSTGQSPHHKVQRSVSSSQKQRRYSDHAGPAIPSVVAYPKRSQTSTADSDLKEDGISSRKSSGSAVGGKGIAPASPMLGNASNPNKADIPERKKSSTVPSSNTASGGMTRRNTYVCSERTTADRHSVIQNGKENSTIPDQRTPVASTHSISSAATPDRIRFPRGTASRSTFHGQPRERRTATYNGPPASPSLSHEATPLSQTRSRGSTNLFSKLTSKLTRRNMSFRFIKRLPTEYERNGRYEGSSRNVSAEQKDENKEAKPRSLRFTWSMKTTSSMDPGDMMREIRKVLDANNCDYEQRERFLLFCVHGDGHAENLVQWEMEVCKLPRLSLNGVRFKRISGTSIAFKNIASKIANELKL

[5] = target: Cyclin-dependent kinase 1 (Homo sapiens, UniProt P06493); assay type: functional;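 note: Kinome-wide panel profiling, with the target listed as panel member CDC2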
Sequence of Cyclin-dependent kinase 1 (P06493 whole entry): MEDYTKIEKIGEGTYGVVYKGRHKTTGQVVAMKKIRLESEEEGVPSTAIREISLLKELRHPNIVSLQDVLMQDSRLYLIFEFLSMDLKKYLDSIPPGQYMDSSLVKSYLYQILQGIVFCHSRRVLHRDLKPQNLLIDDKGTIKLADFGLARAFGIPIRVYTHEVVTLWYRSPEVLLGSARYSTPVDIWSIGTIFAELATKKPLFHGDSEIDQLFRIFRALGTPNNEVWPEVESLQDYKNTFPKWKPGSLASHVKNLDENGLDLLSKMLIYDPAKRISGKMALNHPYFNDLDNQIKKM

[6] = NIH-3T3 fibroblast cytotoxicity, dose response, cytotoxicity control, cell-based, fluorescence, Alamar Blue, secondary assay (AID 2327); assay type: functional;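 note: NIH-3T3 mouse fibroblasts cultured with fluconazole at 8 µg/mL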
[7] = HEp-2 cell cytotoxicity, dose response, cytotoxicity control for RSV inhibitor project, HTS (AID 2410); assay type: functional; conditions: human respiratory syncytial virus
[8] = test system: Streptococcus sp. 'group A'; assay: growth inhibition of control SK(-) GAS strain, dose response, counter-screen for streptokinase expression inhibitor project, luminescence, kanamycin, BacTiterGlo, confirmation (AID 1900); assay type: functional, organism-based
Streptokinase A = target: T1, Streptokinase A (Streptococcus pyogenes serotype M1, UniProt P10520); assay: S. pyogenes streptokinase expression inhibitors, potency, dose response, plasminogen activation absorbance, OD405 (AID 1914); assay type: functional, Streptococcus pyogenes M1 GAS;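 note: secreted streptokinase activity via plasminogen activation per viability signal from cell pellet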
T1 sequence (P10520 whole entry): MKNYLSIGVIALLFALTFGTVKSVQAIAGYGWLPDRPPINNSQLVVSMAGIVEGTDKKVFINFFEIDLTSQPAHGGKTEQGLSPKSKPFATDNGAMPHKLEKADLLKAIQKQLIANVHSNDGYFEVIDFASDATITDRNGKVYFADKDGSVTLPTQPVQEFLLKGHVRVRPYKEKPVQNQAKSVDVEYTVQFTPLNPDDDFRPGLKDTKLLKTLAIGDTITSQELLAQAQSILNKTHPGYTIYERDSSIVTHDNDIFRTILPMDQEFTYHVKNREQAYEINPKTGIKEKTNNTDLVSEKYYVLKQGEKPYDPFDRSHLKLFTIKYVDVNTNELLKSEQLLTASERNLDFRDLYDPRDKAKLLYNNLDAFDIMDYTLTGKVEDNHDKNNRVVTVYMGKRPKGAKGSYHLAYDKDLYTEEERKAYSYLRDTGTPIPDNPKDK

[9] = C. albicans growth with fluconazole, confirmation, fluorescence, retest (AID 2467); assay type: functional, cell-based
Streptococcus = assay: Group A Streptococcus viability loss, dose response, counter-screen for streptokinase expression inhibitor project, luminescence, BacTiterGlo (AID 1915); assay type: functional, organism-based;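 note: potency for reduction of bacterial viability or growth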
CHO-K1 = assay: (§1) Counterscreen for antagonists of the orexin 1 receptor (OX1R; HCRTR1): Homogeneous time resolved fluorescence (HTRF)-based cell-based dose response assay to identify antagonists of the parental CHO-K1 cell line. [Related pubchem assays (depositor defined):AID434989, AID435008, AID463079, AID485270, AID492963, AID492964, AID492965, AID493232, AID504699, AID504701]; assay type: functional; conditions: Cricetulus griseus
[10] = as §1, with “Fluorescence-based” for “Homogeneous time resolved fluorescence (HTRF)-based”, “cell-based high throughput” for “cell-based”, “CHO” for “CHO-K1”; assay type: functional
[11] = target: T2, Orexin/Hypocretin receptor type 1 (Homo sapiens, UniProt O43613); assay: Homogeneous Time Resolved Fluorescence (HTRF)-based cell-based high throughput dose response assay for antagonists of the orexin 1 receptor (OX1R; HCRTR1). [Related pubchem assays (depositor defined):AID434989, AID435008, AID463079, AID485270, AID492963, AID492964, AID492965, AID493232, AID504717, AID504718]; assay type: functional
T2 sequence (O43613 whole entry): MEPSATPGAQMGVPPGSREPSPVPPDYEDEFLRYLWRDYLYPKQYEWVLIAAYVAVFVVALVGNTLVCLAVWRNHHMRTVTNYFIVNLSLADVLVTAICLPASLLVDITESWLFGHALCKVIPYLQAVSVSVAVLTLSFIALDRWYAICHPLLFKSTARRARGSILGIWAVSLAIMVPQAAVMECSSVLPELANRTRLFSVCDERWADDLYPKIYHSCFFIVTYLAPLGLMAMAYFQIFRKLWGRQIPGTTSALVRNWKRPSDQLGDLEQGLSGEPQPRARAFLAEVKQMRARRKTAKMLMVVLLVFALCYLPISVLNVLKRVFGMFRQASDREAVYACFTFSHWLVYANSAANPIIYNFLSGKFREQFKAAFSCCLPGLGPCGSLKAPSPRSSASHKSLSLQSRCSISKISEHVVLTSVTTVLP

[12] = target: T2, Orexin/Hypocretin receptor type 1; assay: Fluorescence-based cell-based high throughput dose response assay for antagonists of the orexin 1 receptor (OX1R; HCRTR1). [Related pubchem assays (depositor defined):AID434989, AID435008, AID463079, AID485270, AID492963, AID492964, AID492965, AID493232, AID504717, AID504718]; assay type: functional
[13] = target: T3, Replicative DNA helicase DnaB (Mycobacterium tuberculosis, UniProt P9WMR3); assay: DnaB intein splicing inhibitors, dose response, biochemical, cell-free fluorescence (AID 449749); assay type: functional
T3 sequence (P9WMR3 whole entry): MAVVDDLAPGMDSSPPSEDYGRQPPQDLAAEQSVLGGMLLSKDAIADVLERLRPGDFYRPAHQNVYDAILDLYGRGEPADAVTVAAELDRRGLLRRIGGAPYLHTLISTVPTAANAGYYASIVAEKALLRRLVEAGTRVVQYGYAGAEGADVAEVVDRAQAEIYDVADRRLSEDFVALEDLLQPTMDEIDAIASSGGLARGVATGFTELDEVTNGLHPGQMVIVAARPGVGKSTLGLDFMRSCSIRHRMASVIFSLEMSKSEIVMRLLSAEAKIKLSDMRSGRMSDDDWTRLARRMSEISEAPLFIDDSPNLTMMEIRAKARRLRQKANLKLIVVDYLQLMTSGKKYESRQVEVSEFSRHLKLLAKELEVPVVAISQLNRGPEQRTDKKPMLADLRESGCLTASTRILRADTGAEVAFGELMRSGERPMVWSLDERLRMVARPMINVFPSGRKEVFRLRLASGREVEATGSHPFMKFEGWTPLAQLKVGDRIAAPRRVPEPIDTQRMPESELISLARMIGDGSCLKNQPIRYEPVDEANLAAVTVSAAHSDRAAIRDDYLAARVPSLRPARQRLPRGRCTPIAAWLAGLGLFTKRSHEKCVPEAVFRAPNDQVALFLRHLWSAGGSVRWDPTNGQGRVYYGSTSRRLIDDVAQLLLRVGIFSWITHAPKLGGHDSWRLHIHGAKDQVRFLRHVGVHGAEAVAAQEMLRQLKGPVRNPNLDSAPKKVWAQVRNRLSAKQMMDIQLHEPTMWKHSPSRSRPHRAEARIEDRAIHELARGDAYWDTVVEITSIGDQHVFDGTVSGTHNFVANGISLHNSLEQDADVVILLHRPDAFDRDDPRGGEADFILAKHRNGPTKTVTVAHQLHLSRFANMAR

Protein RecA = target: T4, Protein RecA (Mycobacterium tuberculosis, UniProt P9WHJ3); assay: Fluorescence Cell-Free Homogeneous Dose Retest to Identify Inhibitors of RecA-Intein Splicing Activity. [Related pubchem assays (depositor defined):AID2097, AID2223, AID489010, AID492950]; assay type: functional
T4 sequence (P9WHJ3 whole entry): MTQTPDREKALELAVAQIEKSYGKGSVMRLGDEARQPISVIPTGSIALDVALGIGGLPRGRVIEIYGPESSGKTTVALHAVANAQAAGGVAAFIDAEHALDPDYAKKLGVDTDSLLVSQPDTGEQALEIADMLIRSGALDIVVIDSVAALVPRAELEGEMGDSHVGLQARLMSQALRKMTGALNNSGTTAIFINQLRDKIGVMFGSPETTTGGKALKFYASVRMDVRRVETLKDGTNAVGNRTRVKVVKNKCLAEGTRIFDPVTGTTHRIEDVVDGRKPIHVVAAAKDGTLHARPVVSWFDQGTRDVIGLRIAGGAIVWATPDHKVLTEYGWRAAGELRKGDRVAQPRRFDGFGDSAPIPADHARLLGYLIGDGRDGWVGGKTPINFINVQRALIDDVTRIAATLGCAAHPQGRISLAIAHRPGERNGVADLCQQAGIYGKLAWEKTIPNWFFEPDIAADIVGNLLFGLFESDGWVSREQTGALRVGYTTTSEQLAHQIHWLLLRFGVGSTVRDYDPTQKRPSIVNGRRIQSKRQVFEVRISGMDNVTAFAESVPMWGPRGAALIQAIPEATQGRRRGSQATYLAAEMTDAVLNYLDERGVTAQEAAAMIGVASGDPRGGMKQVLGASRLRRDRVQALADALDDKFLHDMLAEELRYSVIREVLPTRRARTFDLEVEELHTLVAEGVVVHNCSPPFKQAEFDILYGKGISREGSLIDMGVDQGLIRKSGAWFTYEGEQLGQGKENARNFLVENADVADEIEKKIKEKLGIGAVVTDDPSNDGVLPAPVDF

INS1 = assay: beta cell apoptosis inhibitors, cytokine rescue, dose response, luminescence, retest (AID 449756); assay type: functional, cell-based; conditions: Rattus norvegicus;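 note: cell death triggered by IL-1 beta plus TNF-alpha plus IFN-gamma mixture; protective hits raise ATP signal compared with cytokine alone wells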
Orexin receptor type 2 [14] = target: T5, Orexin receptor type 2 (Homo sapiens, UniProt O43614); assay: Counterscreen assay for antagonists of the orexin 1 receptor (OX1R; HCRTR1): Fluorescence-based cell-based dose response assay for antagonists of the orexin 2 receptor (OX2R; HCRTR2), run by assay provider.; assay type: functional
T5 sequence (O43614 whole entry): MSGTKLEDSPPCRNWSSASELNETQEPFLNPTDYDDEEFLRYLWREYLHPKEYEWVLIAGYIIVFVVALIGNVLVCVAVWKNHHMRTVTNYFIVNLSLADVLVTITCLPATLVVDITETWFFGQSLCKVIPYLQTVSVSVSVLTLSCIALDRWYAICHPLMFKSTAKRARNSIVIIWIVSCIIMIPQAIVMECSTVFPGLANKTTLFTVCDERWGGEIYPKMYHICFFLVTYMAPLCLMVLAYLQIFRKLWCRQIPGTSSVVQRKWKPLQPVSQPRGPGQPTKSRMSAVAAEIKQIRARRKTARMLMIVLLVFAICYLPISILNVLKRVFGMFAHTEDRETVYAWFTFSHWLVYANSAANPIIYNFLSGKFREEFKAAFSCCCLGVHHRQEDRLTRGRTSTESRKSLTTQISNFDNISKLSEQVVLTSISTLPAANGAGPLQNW

Orexin receptor type 2 [15] = target: T5, Orexin receptor type 2; assay: Counterscreen assay for antagonists of the orexin 1 receptor (OX1R; HCRTR1): Homogeneous Time Resolved Fluorescence (HTRF)-based cell-based dose response assay for antagonists of the orexin 2 receptor (OX2R; HCRTR2), run by assay provider.; assay type: functional
Paired box protein Pax-8 = Paired box protein Pax-8 (Homo sapiens, UniProt Q06710); assay: inhibitors of PAX8-driven TPO luciferase reporter, dose response, RMG-I cells, cherry-pick (AID 687027); assay type: functional, cell-based;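 note: luciferase reporter driven by Pax8 target thyroperoxidase promoter measured by SteadyGlo luminescence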
Sequence of Paired box protein Pax-8 (Q06710 whole entry): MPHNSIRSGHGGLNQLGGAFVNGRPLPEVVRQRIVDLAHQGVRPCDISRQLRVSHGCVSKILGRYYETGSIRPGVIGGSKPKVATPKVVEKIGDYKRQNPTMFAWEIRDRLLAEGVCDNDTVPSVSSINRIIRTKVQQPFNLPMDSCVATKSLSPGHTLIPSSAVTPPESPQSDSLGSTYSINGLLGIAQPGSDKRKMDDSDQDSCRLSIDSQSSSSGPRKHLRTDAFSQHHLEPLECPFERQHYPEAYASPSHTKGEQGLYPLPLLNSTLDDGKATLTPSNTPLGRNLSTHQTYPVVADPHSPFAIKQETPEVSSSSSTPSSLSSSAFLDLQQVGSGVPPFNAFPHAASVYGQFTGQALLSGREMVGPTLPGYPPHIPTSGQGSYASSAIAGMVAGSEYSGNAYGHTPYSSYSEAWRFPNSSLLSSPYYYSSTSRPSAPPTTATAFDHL

[16] = non-specific cell cytotoxicity, dose response, cytotoxicity control for PAX8 inhibitor project, plate reader, dry powder samples (AID 743021); assay type: functional, cell-based

Sequence of Serine/threonine-protein kinase Chk2 (O96017 whole entry): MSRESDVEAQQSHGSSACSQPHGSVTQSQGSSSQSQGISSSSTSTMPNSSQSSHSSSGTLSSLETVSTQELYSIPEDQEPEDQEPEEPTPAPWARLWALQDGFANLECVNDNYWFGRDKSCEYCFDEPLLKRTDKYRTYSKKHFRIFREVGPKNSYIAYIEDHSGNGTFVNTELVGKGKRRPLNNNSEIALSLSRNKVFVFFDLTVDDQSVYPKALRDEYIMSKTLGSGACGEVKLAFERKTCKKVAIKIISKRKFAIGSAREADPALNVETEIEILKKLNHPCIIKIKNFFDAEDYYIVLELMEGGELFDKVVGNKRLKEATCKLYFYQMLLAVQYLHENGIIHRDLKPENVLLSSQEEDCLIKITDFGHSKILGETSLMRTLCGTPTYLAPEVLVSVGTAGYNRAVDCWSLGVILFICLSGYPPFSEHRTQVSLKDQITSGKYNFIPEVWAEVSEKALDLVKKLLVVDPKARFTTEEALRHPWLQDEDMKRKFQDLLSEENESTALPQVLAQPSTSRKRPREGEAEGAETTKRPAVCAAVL
Sequence of Aurora kinase A (O14965 whole entry): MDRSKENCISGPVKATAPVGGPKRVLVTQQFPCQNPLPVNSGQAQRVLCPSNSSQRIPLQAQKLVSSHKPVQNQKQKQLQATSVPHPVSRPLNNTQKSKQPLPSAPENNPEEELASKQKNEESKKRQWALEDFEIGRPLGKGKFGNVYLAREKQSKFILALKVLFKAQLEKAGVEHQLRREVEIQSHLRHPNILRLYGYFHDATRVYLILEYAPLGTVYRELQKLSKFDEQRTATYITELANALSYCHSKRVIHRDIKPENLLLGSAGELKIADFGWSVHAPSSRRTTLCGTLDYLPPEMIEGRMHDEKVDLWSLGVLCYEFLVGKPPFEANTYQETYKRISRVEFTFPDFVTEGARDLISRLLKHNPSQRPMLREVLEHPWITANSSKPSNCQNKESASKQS

In the case of `Fc1ccc2c(c1)-c1n[nH]cc1CS2`, the Ki [1] is reported as 6.31 µM (active), the Ki (Aurora kinase A) is reported as 5.01 µM (active) and the Ki [2] is reported as 6.31 µM (active). The Ki [3] was 10 µM (active), the Ki [4] was 12.6 µM (active) and the Ki [5] was 15.8 µM (active).

With `COc1cccc(/C=N/Nc2cc(C)nc(-c3ccccc3O)n2)c1O` the EC50 [6] was 5.22 µM (inconclusive), the CC50 [7] was 5.1 µM (active) and the EC50 [8] was 0.876 µM (active). For the same compound, the EC50 (Streptokinase A) was > 150 µM (not active), the EC50 [9] was 0.294 µM (active) and the EC50 (Streptococcus) was 6.64 µM (active). For the same compound, the IC50 (CHO-K1) was > 66.2 µM (inactive), the IC50 [10] was > 49.8 µM (inactive) and the IC50 [11] was 2.91 µM (active). The IC50 [12] was 3.31 µM (active), the AC50 [13] was 30.1 µM (active) and the EC50 (Protein RecA) was 357 µM (inconclusive). The AC50 (INS1) was 1.93 µM (active), the IC50 (Orexin receptor type 2 [14]) was 11.9 µM (inactive) and the IC50 (Orexin receptor type 2 [15]) was > 50 µM (inactive). For the same compound, the AC50 (Paired box protein Pax-8) was 5.5 µM (active) and the AC50 [16] was 16.2 µM (active).
